Data published in the Biogen ADME set (Fang et al. 2023).
Values after ≈ are worked out from the molar mass of the structure shown.

Details: for aqueous solubility: pH 6.8

Structure (SMILES) | MDR1-MDCK efflux ratio | intrinsic clearance, human liver microsomes [mL/min/kg] | intrinsic clearance, rat liver microsomes [mL/min/kg] | aqueous solubility [µg/mL] | fraction unbound, human plasma | fraction unbound, rat plasma
O=c1[nH]c2ccccc2n1C1CCN(Cc2nc(-c3ccsc3)no2)CC1 | 3.73 | 16.3 | 263 | 5.8 (≈ 15.2 µM) | – | –
c1ccc2[nH]c(SCc3cn4ccccc4n3)nc2c1 | – | 86.2 | 462 | 44.9 (≈ 160 µM) | – | –
COc1ccccc1CNc1cn[nH]c(=O)c1Cl | 1.3 | ≤ 4.74 | 104 | – | – | –
N#CC1(NC(=O)Cc2cc3c(ccc4ccccc43)o2)CCOCC1 | – | 87.3 | 705 | – | – | –
CN(C)c1ccnc2sc3c(=O)n(N4CCCCCC4)cnc3c12 | 3.06 | 8.59 | 90.9 | – | – | –
Cc1sc2ncnc(OCC(=O)NC3CCCCC3)c2c1C | 1.59 | 34.8 | 377 | 17.2 (≈ 54 µM) | – | –
O=C(O)c1cc(/C=C/c2csnn2)nc2ccccc12 | 2.08 | ≤ 4.74 | ≤ 10.7 | 15.7 (≈ 55.4 µM) | – | –
Oc1cccc(CN2CCN(c3ncc(Br)cn3)CC2)c1 | – | 29.3 | 303 | 4.95 (≈ 14.2 µM) | – | –
Cc1cc(CCCC(=O)NC[C@H]2CC[C@H](c3ccc(C(N)=O)c(C)n3)CC2)ccc1F | 33.3 | 214 | 808 | 3.18 (≈ 7.47 µM) | – | –
CC(=O)N1c2ccccc2C[C@H]1C(=O)O | – | ≤ 4.74 | ≤ 10.7 | 33.6 (≈ 164 µM) | – | –
CCc1nnc(Oc2cccnc2)c(C#N)c1CC | 0.781 | 4.94 | 21.6 | 30.5 (≈ 120 µM) | – | –
O=C(Nc1cccc2ncccc12)[C@H]1CCCN(S(=O)(=O)c2ccc(F)cc2)C1 | – | 35.2 | 698 | – | – | –
CCOC(=O)Nc1cc(-c2ccc(C)c(NS(C)(=O)=O)c2)nn2c(C)nnc12 | 28.4 | 7.01 | 124 | 51.4 (≈ 127 µM) | – | –
CCn1ncc(CN2CCC(c3nc(N(C)C)ncc3-c3ccc(OC)cc3)CC2)c1C | 15.6 | 227 | 831 | 52.6 (≈ 121 µM) | – | –
Cc1cc(C)c2c(N)c(C(=O)NCc3ccc(Cl)cc3)sc2n1 | – | 162 | 1540 | – | 0.00426 | 0.00652
COc1ccc(-c2cnn3c(N)c(-c4ccccc4)cnc23)cc1OC | 0.459 | – | – | 0.19 (≈ 0.549 µM) | – | –
Cc1ccc(NC(=O)c2cc(F)cc(F)c2)nc1 | – | 276 | 285 | 7.52 (≈ 30.3 µM) | – | –
CCNC(=O)C1CN(c2nc(C3CC3)nc3c2CCC3)C1 | 23.5 | ≤ 4.74 | 19.9 | 45 (≈ 157 µM) | – | –
Cc1ncsc1C(=O)N1C[C@@H]2CCCN(C(=O)c3scnc3C)[C@@H]2C1 | 82 | ≤ 4.74 | 11 | 75.9 (≈ 202 µM) | – | –
Cc1sc(C)c(C(=O)NC2(c3ccc(C(=O)O)cc3)CC2)c1Cc1ccc(C(F)(F)F)cc1 | 8.19 | ≤ 4.74 | 31.2 | 51.4 (≈ 109 µM) | – | –
[2H]c1nc(C)nc([2H])c1-c1cc(NC[C@@H](C)c2cccc3c(C(=O)NC)ccnc23)ncn1 | 106 | 5.41 | 88.5 | – | – | –

Structure (SMILES) | MDR1-MDCK efflux ratio | intrinsic clearance, human liver microsomes [mL/min/kg] | intrinsic clearance, rat liver microsomes [mL/min/kg] | aqueous solubility [µg/mL] | fraction unbound, human plasma | fraction unbound, rat plasma
CCCN(Cc1ccccc1)C(=O)CC1(N)CCC1 | 11.9 | ≤ 4.74 | 725 | 56.4 (≈ 217 µM) | – | –
CCC(=O)NCC[C@@H]1CCc2ccc3c(c21)CCO3 | 0.867 | 26.4 | 299 | – | – | –
CC(C)(C)c1cc(C(=O)CSc2nnnn2-c2ccccc2)cc(C(C)(C)C)c1O | – | 26.1 | 55.8 | – | – | –
O=C1CC[C@H](O)[C@@H](c2cccc(Cl)c2)N1Cc1ccccc1 | 3.79 | 10.9 | 450 | 118 (≈ 375 µM) | – | –
COc1cccc(-c2nc(-c3cccnc3)n[nH]2)c1 | 0.698 | ≤ 4.74 | 46.5 | 22.7 (≈ 89.8 µM) | – | –
COc1ccc2nc(C)nc(N3CC(O)(c4ccc(F)cc4)C3)c2c1 | 3.87 | 26.9 | 468 | 19.4 (≈ 57.3 µM) | – | –
O=C(NC[C@]1(O)CCN(Cc2ccsc2)C[C@H]1O)c1c[nH]cn1 | 0.366 | ≤ 4.74 | ≤ 10.7 | – | – | –
Cc1ccc(-c2nc(-c3ccncc3)n[nH]2)cc1 | – | 26.9 | 269 | 20 (≈ 84.7 µM) | – | –
N#CCn1c(C(=O)O)cc2ccccc21 | – | – | – | 41.5 (≈ 207 µM) | – | –
CCn1nccc1CNc1ncccn1 | 0.592 | ≤ 4.74 | ≤ 10.7 | – | – | –
COC1CCN(C(=O)Nc2cc(C(F)(F)F)cc(C(F)(F)F)c2)CC1 | 0.476 | 60 | 158 | 71.4 (≈ 193 µM) | – | –
Cn1cnc2ncn(Cc3nc(CCc4ccc(Cl)cc4)no3)c(=O)c21 | 15.7 | 18 | 214 | – | – | –
c1ccc(CN2CCn3nccc3C2)cc1 | 0.584 | ≤ 4.74 | 31 | 15.3 (≈ 71.7 µM) | – | –
N#CC1(CN2CCc3cc(-c4ccccc4)oc3C2)CC1 | 0.273 | 72.7 | 503 | 30.3 (≈ 109 µM) | – | –
c1cc(-c2noc(CN3CCOCC3)n2)ccn1 | 0.732 | ≤ 4.74 | 29.8 | – | – | –
Cc1ccc(Cn2nc(C)c(C(N)=O)c2Cl)cc1 | 0.663 | 7.25 | 358 | 24.4 (≈ 92.6 µM) | – | –
COc1cc(CN2CCC(C(=O)N3CCOCC3)CC2)ccc1C | 2.9 | 9.42 | 228 | – | – | –
COc1cc(C#N)ccc1Oc1nc2ccccc2o1 | – | – | – | 8.7 (≈ 32.7 µM) | – | –
Cc1nc(Cn2ncc3ccccc3c2=O)cs1 | 0.681 | ≤ 4.74 | 103 | 45.1 (≈ 175 µM) | – | –
CC(=O)Nc1ccc(CNCCOc2ccc(F)cc2F)cc1 | 1.57 | 12.5 | 114 | – | – | –
